Results: patent US12116388B2, “Amylin receptor agonists” (Novo Nordisk A/S, priority 2022, dated 2024)
Starred links: 1 amine or outer side, 2 acyl side, 3 side chain; linkers in the order of their positions; H or OH if unused. Residues, ends and D or L forms follow the SMILES beside them. *: point of attachment. C20 diacid = O=C(O)CCCCCCCCCCCCCCCCCCC(=O)*; γGlu = O=C(O)[C@H](CCC(=O)[*:2])N[*:1]

Columns and labels:
[1] = target: T1, human calcitonin receptor (hCTR) (Homo sapiens, UniProt P30988); experiment: Human calcitonin receptor (hCTR) in vitro potency assay, CRE-luciferase reporter in BHK cells; format: cell-based; settings: BHK hCTR/CRE-Luc cells, 3 hours incubation, assay buffer with 1% ovalbumin; read-out: hCalcR potency, EC50
T1 construct: host or cells: BHK (Baby Hamster Kidney), Hollex-1 cell line
T1 sequence (P30988 25-474): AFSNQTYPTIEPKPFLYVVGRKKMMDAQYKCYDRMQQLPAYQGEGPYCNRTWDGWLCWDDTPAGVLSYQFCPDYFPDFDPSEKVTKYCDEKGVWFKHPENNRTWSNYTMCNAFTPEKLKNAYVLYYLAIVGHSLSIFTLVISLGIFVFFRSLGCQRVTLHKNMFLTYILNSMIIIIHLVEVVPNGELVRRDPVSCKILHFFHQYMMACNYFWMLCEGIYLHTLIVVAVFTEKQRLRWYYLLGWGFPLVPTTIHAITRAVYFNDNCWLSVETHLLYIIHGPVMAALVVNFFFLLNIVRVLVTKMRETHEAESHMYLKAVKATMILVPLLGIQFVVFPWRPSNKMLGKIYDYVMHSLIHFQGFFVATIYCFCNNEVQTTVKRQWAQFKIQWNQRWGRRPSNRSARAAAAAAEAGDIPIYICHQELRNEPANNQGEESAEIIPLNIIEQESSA
From the text: (§1) Activation of hCTR leads to increased cellular concentrations of CAMP. Consequently, transcription is activated by promotors containing multiple copies of the CAMP response element (CRE). It is thus possible to measure hCTR activity using a CRE-luciferase reporter gene introduced into Baby Hamster Kidney (BHK) cells co-expressing the hCTR.
(§2) A BHK cell line was stably transfected with the human calcitonin receptor (a) and a CRE-responsive luciferase (CRE-Luc) reporter gene according to methods known to the person skilled in the art (Hollex-1 cell line, obtained from Zymogenetics described in U.S. Pat. No. 5,622,839).
(§3) Cells stocks were prepared by culturing of the stably transfected BHK hCTR/CRE-Luc cell line in growth medium consisting of DMEM (Gibco, 31966-021) supplemented with 10% FBS (Gibco, 16140-071), 1% Pen/Strep (Gibco, 15140-122), 0.5 mg/mL Geneticin (Gibco, 10131-027) and 250 nM Methotrexate (Sigma, A6770). Cells at approximately 80-90% confluence were washed once with PBS (Gibco 14190-094) and loosened from the cell flasks with Versene (Gibco, 15040-033) or TrypLE™ (Gibco, 12605-010). After centrifugation, the cell pellet was dissolved and diluted to approximately 2.5×10E6 cells/mL in Recovery™ Cell Culture Freezing Medium (Gibco, 12648-010). Cells were aliquoted and stored at −180° C. until use.
(§4) The assay buffer consisted of DMEM without phenol red (Gibco, 11880-028) supplemented with 1× GlutaMAX (Gibco, 35050-038), 10 mM HEPES (Gibco, 15630-056) and 1% (w/v) ovalbumin (Sigma, A5503).
(§5) To perform the assay, BHK hCTR/CRE-Luc cells were thawed, washed once in PBS and seeded in 40 μL growth medium in a white 384-well culture plate (PerkinElmer, 6007688) at a cell density of 4.000 cells/well on the day before the experiment. The plate was incubated over night at 37° C. in 5% CO2. On the day of the assay, cells were washed once in assay buffer. Serial dilutions (7-fold dilutions, 7 concentrations Pr. compound and one well containing only assay buffer) of comparator compounds and amylin analogues were performed in assay buffer often starting from approximately 10 nM in 96-well plates and 30 μL of each concentration added to the 384-well assay plate with cells. The assay plate was incubated for 3 hours at 37° C. in 5% CO2 after which 30 μL SteadyLite Plus (PerkinElmer, 6066759) was added to each well. The assay plate was sealed, incubated at room temperature with gentle shaking for 5 minutes followed by 30 minutes incubation without shaking while protected from light. Luminescence was detected on a luminescence plate reader e.g. a Synergy 2 (BioTek).

[2] = target: T2, human amylin receptor (hAMYR3) (Homo sapiens, UniProt O60896+P30988); experiment: Human amylin receptor (hAMYR3) in vitro potency assay, CRE-luciferase reporter in BHK cells; format: cell-based; settings: BHK hAMYR3/CRE-Luc cells, 3 hours incubation, assay buffer with 1% ovalbumin
T2 construct: host or cells: BHK (Baby Hamster Kidney), Hollex-1 cell line further transfected with RAMP3
T2 sequence (O60896 24-148, one chain of several): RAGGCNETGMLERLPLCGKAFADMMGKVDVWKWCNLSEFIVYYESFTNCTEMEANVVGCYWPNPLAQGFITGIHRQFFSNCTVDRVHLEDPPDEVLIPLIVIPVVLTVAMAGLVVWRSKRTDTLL
From the text: as §1, with “hAMYR3” for “hCTR”, “cAMP.” for “CAMP.”, “hAMYR3.” for “hCTR.”
as §2, with “5,622,839). The cell line was further transfected with human receptor modifying protein 3 (RAMP3) using standard methods. This turns the human calcitonin receptor into a human amylin-3(a) receptor.” for “5,622,839).”
as §3, with “hAMYR3/CRE-Luc” for “hCTR/CRE-Luc”, “10131-027), 0.4 mg/mL Hygromycin (Invitrogen, 10687010)” for “10131-027)”
as §4
as §5, with “hAMYR3/CRE-Luc” for “hCTR/CRE-Luc”

Row | Compound | EC50 [1] | EC50 [2]
1 | CC[C@H](C)[C@H](NC(=O)[C@@H]1CCCN1C(=O)CNC(=O)[C@H](Cc1ccccc1)NC(=O)[C@H](CC(N)=O)NC(=O)[C@H](CC(=O)O)NC(=O)[C@H](CO)NC(=O)[C@H](CO)NC(=O)[C@H](Cc1c[nH]cn1)NC(=O)[C@H](Cc1c[nH]cn1)NC(=O)[C@H](CC(C)C)NC(=O)[C@H](Cc1ccccc1)NC(=O)[C@H](CCC(=O)O)NC(=O)[C@H](C)NC(=O)[C@H](CC(C)C)NC(=O)[C@H](CCCNC(=N)N)NC(=O)[C@H](CCC(N)=O)NC(=O)[C@@H](NC(=O)[C@H](CCC(N)=O)NC(=O)[C@H](C)NC(=O)[C@@H](NC(=O)[C@H](CO)NC(=O)[C@H](CC(C)C)NC(=O)[C@H](Cc1c[nH]cn1)NC(=O)[C@H](CO)NC(=O)[C@H](C)NC(=O)CC[C@H](NC(=O)CCCCCCCCCCCCCCCCCCC(=O)O)C(=O)O)[C@@H](C)O)[C@@H](C)O)C(=O)N[C@@H](CC(C)C)C(=O)N1CCC[C@H]1C(=O)N1CCC[C@H]1C(=O)N[C@H](C(=O)N[C@@H](CC(=O)O)C(=O)N[C@H](C(=O)NCC(=O)N[C@@H](CO)C(=O)N[C@@H](CC(N)=O)C(=O)N[C@H](C(=O)N1CCC[C@H]1C(N)=O)[C@@H](C)O)C(C)C)[C@@H](C)O [Compound 3, N^1-[(4S)-4-carboxy-4-(19-carboxynonadecanoylamino)butanoyl]-[Ala1,Ser2,His3,Leu4,Ser5,Ala7,Gln8,Glu14,His17,Asp21,Pro25,Pro28,Pro29,Asp31,Pro37]-human amylin] ({C20 diacid-γGlu}-ASHLSTAQTQRLAEFLHHSSDNFGPILPPTDVGSNTP-NH2) | 1.3 pM | –
2 | CC[C@H](C)[C@H](NC(=O)[C@@H]1CCCN1C(=O)CNC(=O)[C@H](Cc1ccccc1)NC(=O)[C@H](Cc1c[nH]cn1)NC(=O)[C@H](Cc1c[nH]cn1)NC(=O)[C@H](CC(C)C)NC(=O)[C@H](Cc1ccccc1)NC(=O)[C@H](CCC(=O)O)NC(=O)[C@H](C)NC(=O)[C@H](CC(C)C)NC(=O)[C@H](CCCNC(=N)N)NC(=O)[C@H](C)NC(=O)[C@@H](NC(=O)[C@H](CCC(N)=O)NC(=O)[C@H](C)NC(=O)[C@@H](NC(=O)[C@H](CO)NC(=O)[C@H](CC(C)C)NC(=O)[C@H](Cc1c[nH]cn1)NC(=O)[C@H](CO)NC(=O)[C@H](C)NC(=O)CC[C@H](NC(=O)CCCCCCCCCCCCCCCCCCC(=O)O)C(=O)O)[C@@H](C)O)[C@@H](C)O)C(=O)N[C@@H](CC(C)C)C(=O)N1CCC[C@H]1C(=O)N1CCC[C@H]1C(=O)N[C@H](C(=O)N[C@@H](CC(=O)O)C(=O)N[C@H](C(=O)NCC(=O)N[C@@H](CO)C(=O)N[C@@H](CCC(=O)O)C(=O)N[C@H](C(=O)N1CCC[C@H]1C(N)=O)[C@@H](C)O)C(C)C)[C@@H](C)O [Compound 5, N^1-[(4S)-4-carboxy-4-(19-carboxynonadecanoylamino)butanoyl]-[Ala1,Ser2,His3,Leu4,Ser5,Ala7,Gln8,Ala10,Glu14,His17,Pro25,Pro28,Pro29,Asp31,Glu35,Pro37],des-(19-22)-human amylin] ({C20 diacid-γGlu}-ASHLSTAQTARLAEFLHHFGPILPPTDVGSETP-NH2) | 1.49 pM | 1.09 pM
3 | CC[C@H](C)[C@H](NC(=O)[C@H](C)NC(=O)CNC(=O)[C@H](Cc1ccccc1)NC(=O)[C@@H]1CCCN1C(=O)[C@H](CC(=O)O)NC(=O)[C@H](CO)NC(=O)[C@H](CO)NC(=O)[C@H](Cc1c[nH]cn1)NC(=O)[C@H](Cc1c[nH]cn1)NC(=O)[C@H](CC(C)C)NC(=O)[C@H](Cc1ccccc1)NC(=O)[C@H](CCC(=O)O)NC(=O)[C@H](C)NC(=O)[C@H](CC(C)C)NC(=O)[C@H](CCCNC(=N)N)NC(=O)[C@H](CCC(N)=O)NC(=O)[C@@H](NC(=O)[C@H](CCC(N)=O)NC(=O)[C@H](C)NC(=O)[C@@H](NC(=O)[C@H](CO)NC(=O)[C@H](CC(C)C)NC(=O)[C@H](Cc1c[nH]cn1)NC(=O)[C@H](CO)NC(=O)[C@H](C)NC(=O)CC[C@H](NC(=O)CCCCCCCCCCCCCCCCCCC(=O)O)C(=O)O)[C@@H](C)O)[C@@H](C)O)C(=O)N1CCC[C@H]1C(=O)N[C@@H](CO)C(=O)N[C@@H](CO)C(=O)N[C@H](C(=O)N[C@@H](CC(=O)O)C(=O)N[C@H](C(=O)NCC(=O)N1CCC[C@H]1C(=O)N[C@@H](CC(=O)O)C(=O)N[C@H](C(=O)N1CCC[C@H]1C(N)=O)[C@@H](C)O)C(C)C)[C@@H](C)O [Compound 6, N^1-[(4S)-4-carboxy-4-(19-carboxynonadecanoylamino)butanoyl]-[Ala1,Ser2,His3,Leu4,Ser5,Ala7,Gln8,Glu14,His17,Asp21,Pro22,Pro27,Asp31,Pro34,Asp35,Pro37]-human amylin] ({C20 diacid-γGlu}-ASHLSTAQTQRLAEFLHHSSDPFGAIPSSTDVGPDTP-NH2) | 1.25 pM | –
